Data on 23 molecules can be found in US20230277534A1 (Plexxikon Inc., priority 2011, published 2023).

Some results are limits rather than exact numbers.

The term IC50 denotes the concentration needed to halve the response being measured. Low values mean inhibition by little substance, high ones a need for much substance.

Experiment [1] relates to COLO205 colon adenocarcinoma cells (B-Raf V600E mutation). Kind of experiment: COLO205 cell growth inhibition (ATPlite). The experiment is classed as cell-based. Particulars: Homo sapiens, COLO 205, 72 h, 3 days. The procedure: Compounds are assessed in a variety of cell based assays.
On day 1, cells are counted, then centrifuged in a conical tube for 5 minutes at 1000 rpm.
On day 2, compound at a maximum concentration of 5 mM is serially diluted 1:3 (e.g. 10 μL with 30 μL dimethyl sulfoxide) for a total of 8 point titration with DMSO as a control. A 1 μL aliquot of each dilution point and control is added to 249 μL growth media and 50 μL is added to a well containing cells, providing 10 μM compound at the maximum concentration point. The cells are incubated for 3 days at 37° C. in 5% CO2.
ATPlite is added 25 μL to each well, shake for 2 minutes, and the cells are incubated at room temperature for 10 minutes, then luminescence is read on Safire reader. The measured luminescence correlates directly with cell number, such that the reading as a function of compound concentration is used to determine the IC50 value.
For orientation: In ATP-based viability assays light output follows the ATP content of the culture.

The next experiment concerns the target B-Raf V600E (Homo sapiens (Human), UniProt P15056, V600E). Briefly: B-Raf V600E kinase biochemical activity assay (AlphaScreen, biotin-MEK1 substrate). To be noted: 100 μM ATP. As for the experimental part:
Assays for biochemical and cell based activity are known in the art, for example, as described in PCT publication WO 2007/002433, the disclosure of which is hereby incorporated by reference as it relates to such assays. For example, the biochemical activity IC50 values are determined with respect to inhibition of B-Raf V600E kinase activity or p-Erk kinase activity, where inhibition of phosphorylation of a peptide substrate is measured as a function of compound concentration. Compounds to be tested are diluted in dimethyl sulfoxide to a concentration of 0.1 mM. These are serially diluted 15 μL into 30 μL of dimethyl sulfoxide seven times in 96 well plates for a total of 8 dilution points, and for each dilution point 1 μL is added to a well of an assay plate. Plates are prepared such that each well in a 384 well plate contains 1 μL of compound in 10 μL volume with 0.1 ng Raf enzyme (i.e. any of B-Raf, c-Raf-1 or B-Raf V600E, Upstate Biotechnology or prepared by methods known to one of skill in the art), 50 mM HEPES, pH 7.0, 50 mM NaCl, 2 mM MgCl2, 1 mM MnCl2, 0.01% Tween-20, 1 mM DTT, and 100 nM biotin-MEK1 as substrate. The reaction is started with addition of 10 μL of 200 μM ATP (i.e. final 100 μM ATP). After incubation of the kinase reaction for 45 minutes at room temperature, 5 μL/well of Stop Solution is added (25 mM Hepes pH 7.5, 100 mM EDTA, 0.01% BSA with donor beads (Streptavidin coated beads, Perkin Elmer), acceptor beads (Protein A coated, Perkin Elmer), and anti phosphor MEK1/2 antibody (CellSignal), each at final concentration 10 μg/mL). The plates are incubated for 3 hours at room temperature and read on Envision reader (Perkin Elmer). Phosphorylation of Mek1 results in binding of the anti-phosphor-MEK1/2antibody and association of the donor and acceptor beads such that signal correlates with kinase activity. The signal vs. compound concentration is used to determine the IC50.
Background: Alpha assays give light when donor and acceptor beads are brought close together.

Sequence of B-Raf V600E (P15056 whole entry V600E): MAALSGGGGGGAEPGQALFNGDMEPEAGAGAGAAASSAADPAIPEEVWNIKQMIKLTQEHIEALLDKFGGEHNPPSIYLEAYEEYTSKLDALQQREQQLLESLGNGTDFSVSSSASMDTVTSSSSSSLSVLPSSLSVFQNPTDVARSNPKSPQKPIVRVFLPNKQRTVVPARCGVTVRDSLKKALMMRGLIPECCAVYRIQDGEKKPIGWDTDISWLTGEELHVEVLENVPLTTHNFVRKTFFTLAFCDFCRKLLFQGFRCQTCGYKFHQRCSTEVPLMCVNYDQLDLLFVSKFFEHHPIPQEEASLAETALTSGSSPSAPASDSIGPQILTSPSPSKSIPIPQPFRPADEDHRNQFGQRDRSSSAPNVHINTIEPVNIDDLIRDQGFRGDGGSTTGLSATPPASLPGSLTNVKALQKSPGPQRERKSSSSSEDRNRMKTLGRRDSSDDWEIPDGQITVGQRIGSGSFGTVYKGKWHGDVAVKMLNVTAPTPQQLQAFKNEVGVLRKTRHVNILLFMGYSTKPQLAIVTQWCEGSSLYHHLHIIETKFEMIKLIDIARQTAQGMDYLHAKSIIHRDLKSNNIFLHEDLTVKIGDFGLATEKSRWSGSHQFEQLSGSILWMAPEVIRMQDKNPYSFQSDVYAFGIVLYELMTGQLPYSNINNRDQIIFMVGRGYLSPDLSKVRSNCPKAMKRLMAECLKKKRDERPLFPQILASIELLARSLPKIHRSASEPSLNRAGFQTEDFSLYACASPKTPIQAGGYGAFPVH

For the molecule `O=C(c1c(F)ccc(NS(=O)(=O)N2CCCC2)c1F)c1c[nH]c2ncc(F)c(NCC3CC3)c12` [Compound P-0016, N-[3-[4-(cyclopropylmethylamino)-5-fluoro-1H-pyrrolo[2,3-b]pyridine-3-carbonyl]-2,4-difluoro-phenyl]pyrrolidine-1-sulfonamide], the figures for the IC50 (in experiment [1]; against B-Raf V600E) were under 1 µM and under 0.1 µM, respectively.

`COCCS(=O)(=O)Nc1cccc(C(=O)c2c[nH]c3ncc(-c4cnc(OC)nc4)cc23)c1F` [Compound P-0065, N-[2-fluoro-3-[5-(2-methoxypyrimidin-5-yl)-1H-pyrrolo[2,3-b]pyridine-3-carbonyl]phenyl]-2-methoxy-ethanesulfonamide]: the IC50 in experiment [1] was over 1 µM; against B-Raf V600E it was under 0.1 µM.

Take `CC(C)CN(C)S(=O)(=O)Nc1cccc(C(=O)c2c[nH]c3ncc(I)cc23)c1F` [Compound P-0070, 3-[2-fluoro-3-[[isobutyl(methyl)sulfamoyl]amino]benzoyl]-5-iodo-1H-pyrrolo[2,3-b]pyridine]: the IC50 in experiment [1] is over 1 µM.

In the case of `CC(C)NS(=O)(=O)Nc1cccc(C(=O)c2c[nH]c3ncc(I)cc23)c1F` [Compound P-0071, [2-fluoro-3-(isopropylsulfamoylamino)phenyl]-(5-iodo-1H-pyrrolo[2,3-b]pyridin-3-yl)methanone], the IC50 in experiment [1] was over 1 µM; against B-Raf V600E, over 0.1 µM.

Consider `COc1ncc(-c2cnc3[nH]cc(C(=O)c4cccc(NS(=O)(=O)N(C)CC(C)C)c4F)c3c2)cn1` [Compound P-0072, 3-[2-fluoro-3-[[isobutyl(methyl)sulfamoyl]amino]benzoyl]-5-(2-methoxypyrimidin-5-yl)-1H-pyrrolo[2,3-b]pyridine], for which the IC50 in experiment [1] is over 1 µM; against B-Raf V600E, over 0.1 µM.

For `COCCN(C)S(=O)(=O)Nc1cccc(C(=O)c2c[nH]c3ncc(-c4cnc(OC)nc4)cc23)c1F` [Compound P-0073, 3-[2-fluoro-3-[[2-methoxyethyl(methyl)sulfamoyl]amino]benzoyl]-5-(2-methoxypyrimidin-5-yl)-1H-pyrrolo[2,3-b]pyridine], the IC50 was over 1 µM in experiment [1] and over 0.1 µM at B-Raf V600E.

As for `CCC(C)S(=O)(=O)Nc1cccc(C(=O)c2c[nH]c3ncc(-c4cnc(C5CC5)nc4)cc23)c1F` (stereo not shown) [Compound P-0228, N-[3-[5-(2-cyclopropylpyrimidin-5-yl)-1H-pyrrolo[2,3-b]pyridine-3-carbonyl]-2-fluoro-phenyl]butane-2-sulfonamide], the IC50 in experiment [1] is under 1 µM.

As to `CN(C)S(=O)(=O)Nc1ccc(F)c(C(=O)c2c[nH]c3ncc(-c4ccc(C5(C#N)CC5)cc4)cc23)c1F` [Compound P-0237, 5-[4-(1-cyanocyclopropyl)phenyl]-3-[3-(dimethylsulfamoylamino)-2,6-difluoro-benzoyl]-1H-pyrrolo[2,3-b]pyridine], the IC50 in experiment [1] is under 1 µM.

Regarding `CCN(C)S(=O)(=O)Nc1ccc(F)c(C(=O)c2c[nH]c3ncc(-c4ccc(C5(C#N)CC5)cc4)cc23)c1F` [Compound P-0239, 5-[4-(1-cyanocyclopropyl)phenyl]-3-[3-[[ethyl(methyl)sulfamoyl]amino]-2,6-difluoro-benzoyl]-1H-pyrrolo[2,3-b]pyridine], the IC50 in experiment [1] is under 1 µM.

In the case of `N#CC1(c2ccc(-c3cnc4[nH]cc(C(=O)c5c(F)ccc(NS(=O)(=O)N6CCCC6)c5F)c4c3)cc2)CC1` [Compound P-0248, N-[3-[5-[4-(1-cyanocyclopropyl)phenyl]-1H-pyrrolo[2,3-b]pyridine-3-carbonyl]-2,4-difluoro-phenyl]pyrrolidine-1-sulfonamide], the IC50 in experiment [1] was under 1 µM.

In the case of `COc1ncc(-c2cnc3[nH]cc(C(=O)c4c(F)ccc(NS(=O)(=O)N5CCCC5)c4F)c3c2)s1` [Compound P-0270, N-[2,4-difluoro-3-[5-(2-methoxythiazol-5-yl)-1H-pyrrolo[2,3-b]pyridine-3-carbonyl]phenyl]pyrrolidine-1-sulfonamide], the IC50 against B-Raf V600E is under 0.1 µM.

On to `CNC1CCN(S(=O)(=O)Nc2cccc(C(=O)c3c[nH]c4ncc(-c5cnc(C6CC6)nc5)cc34)c2F)C1` (stereo not shown) [Compound P-0272, N-[3-[5-(2-cyclopropylpyrimidin-5-yl)-1H-pyrrolo[2,3-b]pyridine-3-carbonyl]-2-fluoro-phenyl]-3-(methylamino)pyrrolidine-1-sulfonamide], for which the IC50 against B-Raf V600E is over 0.1 µM.

Take `O=C(c1c(F)ccc(NS(=O)(=O)N2CCCC2)c1F)c1c[nH]c2ncc(-c3ccncc3)cc12` [Compound P-0273, N-[2,4-difluoro-3-[5-(4-pyridyl)-1H-pyrrolo[2,3-b]pyridine-3-carbonyl]phenyl]pyrrolidine-1-sulfonamide]: the IC50 in experiment [1] was under 1 µM.

`Nc1nccc(-c2cnc3[nH]cc(C(=O)c4c(F)ccc(NS(=O)(=O)N5CCCC5)c4F)c3c2)n1` [Compound P-0280, N-[3-[5-(2-aminopyrimidin-4-yl)-1H-pyrrolo[2,3-b]pyridine-3-carbonyl]-2,4-difluoro-phenyl]pyrrolidine-1-sulfonamide] returned an IC50 in experiment [1] of under 1 µM.

For the molecule `O=C(c1c(F)ccc(NS(=O)(=O)N2CCCC2)c1F)c1c[nH]c2ncc(-c3ccnc(N4CCOCC4)c3)cc12` [Compound P-0284, N-[2,4-difluoro-3-[5-(2-morpholino-4-pyridyl)-1H-pyrrolo[2,3-b]pyridine-3-carbonyl]phenyl]pyrrolidine-1-sulfonamide], in experiment [1], the IC50 was under 1 µM.

On B-Raf V600E, `O=C(c1c(F)ccc(NS(=O)(=O)N2CCCC2)c1F)c1c[nH]c2ncc(-c3ccnc(OC4CCC4)c3)cc12` [Compound P-0286, N-[3-[5-[2-(cyclobutoxy)-4-pyridyl]-1H-pyrrolo[2,3-b]pyridine-3-carbonyl]-2,4-difluoro-phenyl]pyrrolidine-1-sulfonamide] displayed an IC50 of under 0.1 µM.

Turning to `COC(=O)C(C)S(=O)(=O)Nc1cccc(C(=O)c2c[nH]c3ncc(-c4cnc(C5CC5)nc4)cc23)c1F` (stereo not shown) [Compound P-0291, methyl 2-[[3-[5-(2-cyclopropylpyrimidin-5-yl)-1H-pyrrolo[2,3-b]pyridine-3-carbonyl]-2-fluoro-phenyl]sulfamoyl]propanoate], the IC50 against B-Raf V600E was over 0.1 µM.

With `CCN(C)S(=O)(=O)Nc1ccc(F)c(C(=O)c2c[nH]c3ncc(-c4cnc(N(C)C)nc4)cc23)c1F` [Compound P-0292, 5-[2-(dimethylamino)pyrimidin-5-yl]-3-[3-[[ethyl(methyl)sulfamoyl]amino]-2,6-difluoro-benzoyl]-1H-pyrrolo[2,3-b]pyridine], in experiment [1], the IC50 was under 1 µM.

As for `O=C(c1c(F)ccc(NS(=O)(=O)N2CCCC2)c1F)c1c[nH]c2ncc(-c3cc(C(F)(F)F)ncn3)cc12` [Compound P-0294, N-[2,4-difluoro-3-[5-[6-(trifluoromethyl)pyrimidin-4-yl]-1H-pyrrolo[2,3-b]pyridine-3-carbonyl]phenyl]pyrrolidine-1-sulfonamide], the IC50 against B-Raf V600E is under 0.1 µM.

Molecule `CCN(C)S(=O)(=O)Nc1ccc(F)c(C(=O)c2c[nH]c3ncc(-c4cccc(N(C)C)c4)cc23)c1F` [Compound P-0302, 5-[3-(dimethylamino)phenyl]-3-[3-[[ethyl(methyl)sulfamoyl]amino]-2,6-difluoro-benzoyl]-1H-pyrrolo[2,3-b]pyridine] yielded an IC50 on B-Raf V600E of under 0.1 µM.

The molecule `CCN(C)S(=O)(=O)Nc1ccc(F)c(C(=O)c2c[nH]c3ncc(-c4ccc(C(=O)NC5CC5)nc4)cc23)c1F` [Compound P-0312, N-cyclopropyl-5-[3-[3-[[ethyl(methyl)sulfamoyl]amino]-2,6-difluoro-benzoyl]-1H-pyrrolo[2,3-b]pyridin-5-yl]pyridine-2-carboxamide] yielded an IC50 on B-Raf V600E of under 0.1 µM.

Consider `CN1CCN(c2cc(-c3cnc4[nH]cc(C(=O)c5c(F)ccc(NS(=O)(=O)N6CCCC6)c5F)c4c3)ncn2)CC1` [Compound P-0319, N-[2,4-difluoro-3-[5-[6-(4-methylpiperazin-1-yl)pyrimidin-4-yl]-1H-pyrrolo[2,3-b]pyridine-3-carbonyl]phenyl]pyrrolidine-1-sulfonamide], for which, on B-Raf V600E, the IC50 is under 0.1 µM.

Regarding `C[C@H]1CCN(S(=O)(=O)Nc2ccc(F)c(C(=O)c3c[nH]c4ncc(-c5cnc(C6CC6)nc5)cc34)c2F)C1` [Compound P-0320, (3S)—N-[3-[5-(2-cyclopropylpyrimidin-5-yl)-1H-pyrrolo[2,3-b]pyridine-3-carbonyl]-2,4-difluoro-phenyl]-3-methyl-pyrrolidine-1-sulfonamide], the IC50 against B-Raf V600E is over 0.1 µM.
